According to paper PMC3415135 (Evidence-based Complementary and Alternative Medicine : eCAM, 2012):
In brackets after ≈: the same amount, converted by molar mass.

Legend:
Type in all cases: biochemical
Apis = Apis (Apis mellifera, UniProt P00630)
[1] = target: T1, HGVPLA2 (human group V PLA2) (Homo sapiens, UniProt P39877); experiment: enzyme inhibition, Cayman kit
T1 construct: gene PLA2G5; commercial assay, Cayman Chemical
T1 sequence (P39877 21-138): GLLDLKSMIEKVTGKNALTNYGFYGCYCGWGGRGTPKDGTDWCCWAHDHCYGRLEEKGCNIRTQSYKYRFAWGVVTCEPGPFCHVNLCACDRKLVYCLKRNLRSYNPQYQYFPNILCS
Text: enzyme inhibition, Cayman kit on HGVPLA2 (human group V PLA2)

COX-2 (cyclooxygenase-2) = target: T2, COX-2 (cyclooxygenase-2); experiment: enzyme inhibition, Cayman kit; conditions: per manufacturer's instructions
T2 construct: gene PTGS2; commercial, Cayman Chemical
Text: enzyme inhibition, Cayman kit on COX-2 (cyclooxygenase-2)

[2] = target: T3, BPPLA2 (bovine pancreas PLA2) (Bos taurus, UniProt P00593); experiment: enzyme inhibition, Cayman kit
T3 construct: gene PLA2G1B; native pancreatic enzyme, purchased from Sigma-Aldrich
T3 sequence (P00593 23-145): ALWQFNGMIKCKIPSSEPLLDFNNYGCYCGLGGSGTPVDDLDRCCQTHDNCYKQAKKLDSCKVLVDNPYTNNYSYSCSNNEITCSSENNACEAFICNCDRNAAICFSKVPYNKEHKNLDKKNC
Text: enzyme inhibition, Cayman kit on BPPLA2 (bovine pancreas PLA2)

[3] = target: T4, LOX 15HRC (Lipoxygenase 15hrc); experiment: enzyme inhibition, Cayman kit; conditions: per manufacturer's instructions
T4 construct: gene ALOX15; commercial, Cayman Chemical
Text: enzyme inhibition, Cayman kit on LOX 15HRC (Lipoxygenase 15hrc)

Apis, sequence (P00630 34-167 limits assumed): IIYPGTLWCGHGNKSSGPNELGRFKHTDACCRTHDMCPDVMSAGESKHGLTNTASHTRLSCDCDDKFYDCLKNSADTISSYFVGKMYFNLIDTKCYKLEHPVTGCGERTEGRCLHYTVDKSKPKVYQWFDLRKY

Compound | hydrolysis, A425 (Apis) | IC50 [1] [µM] | IC50 (COX-2 (cyclooxygenase-2)) [mg/L] | IC50 [2] [µM] | IC50 [3] [mg/L]
CCCCCCCC(=O)Oc1cc(C(=O)O)ccc1[N+](=O)[O-] [4-nitro-3-octanoyloxy-benzoic acid] | as a direct result of the cleavage of the synthetic substrate | – | – | – | –
CC1(C)Oc2cc3occ(-c4ccc5c(c4)OCO5)c(=O)c3c(O)c2C[C@H]1O [harpalycin 2] | – | 71.7 | 32.73 (≈ 85.6 µM) | 31.1 | 55.96 (≈ 146 µM)
